From ChEMBL document CHEMBL3233012, “Synthesis, antimicrobial and cytotoxic activities of pyrimidinyl benzoxazole, benzothiazole and benzimidazole” (Eur J Med Chem, 2014)
Converted amounts (≈) assume the structure as drawn. The source made the active and inactive calls. The rule behind the calls is not given here.

Tests used:
Escherichia coli [1] = assay: Antimicrobial activity against Escherichia coli at 25 ug/well after 24 hrs by agar well diffusion method; assay type: functional; conditions: read-out: DIZ
Staphylococcus aureus [2] = assay: Antimicrobial activity against Staphylococcus aureus at 50 ug/well after 24 hrs by agar well diffusion method; assay type: functional; conditions: read-out: DIZ
Pseudomonas aeruginosa [3] = assay: Antimicrobial activity against Pseudomonas aeruginosa at 50 ug/well after 24 hrs by agar well diffusion method; assay type: functional; conditions: read-out: DIZ
A549 [4] = assay: Cytotoxicity against human A549 cells assessed as reduction in cell viability after 20 hrs by MTT assay; assay type: functional, cell-based
Pseudomonas aeruginosa [5] = assay: Antimicrobial activity against Pseudomonas aeruginosa at 25 ug/well after 24 hrs by agar well diffusion method; assay type: functional; conditions: read-out: DIZ
Staphylococcus aureus [6] = assay: Antimicrobial activity against Staphylococcus aureus at 100 ug/well after 24 hrs by agar well diffusion method; assay type: functional; conditions: read-out: DIZ
Penicillium chrysogenum [7] = assay: Antimicrobial activity against Penicillium chrysogenum at 25 ug/well after 48 hrs by agar well diffusion method; assay type: functional; conditions: read-out: DIZ
Escherichia coli [8] = assay: Antimicrobial activity against Escherichia coli at 100 ug/well after 24 hrs by agar well diffusion method; assay type: functional; conditions: read-out: DIZ
Aspergillus niger [9] = assay: Antimicrobial activity against Aspergillus niger at 100 ug/well after 48 hrs by agar well diffusion method; assay type: functional; conditions: read-out: DIZ
Aspergillus niger [10] = assay: Antimicrobial activity against Aspergillus niger at 50 ug/well after 48 hrs by agar well diffusion method; assay type: functional; conditions: read-out: DIZ
Pseudomonas aeruginosa [11] = assay: Antimicrobial activity against Pseudomonas aeruginosa at 100 ug/well after 24 hrs by agar well diffusion method; assay type: functional; conditions: read-out: DIZ
Penicillium chrysogenum [12] = assay: Antimicrobial activity against Penicillium chrysogenum at 50 ug/well after 48 hrs by agar well diffusion method; assay type: functional; conditions: read-out: DIZ
Escherichia coli [13] = assay: Antimicrobial activity against Escherichia coli at 50 ug/well after 24 hrs by agar well diffusion method; assay type: functional; conditions: read-out: DIZ
Penicillium chrysogenum [14] = assay: Antimicrobial activity against Penicillium chrysogenum at 100 ug/well after 48 hrs by agar well diffusion method; assay type: functional; conditions: read-out: DIZ
Staphylococcus aureus [15] = assay: Antimicrobial activity against Staphylococcus aureus at 25 ug/well after 24 hrs by agar well diffusion method; assay type: functional; conditions: read-out: DIZ
Aspergillus niger [16] = assay: Antimicrobial activity against Aspergillus niger at 25 ug/well after 48 hrs by agar well diffusion method; assay type: functional; conditions: for zone of inhibition at 25 µg/disc: read-out: DIZ
A549 [17] = assay: Cytotoxicity against human A549 cells assessed as reduction in cell viability up to 200 uM after 20 hrs by MTT assay; assay type: functional, cell-based
Penicillium chrysogenum [18] = assay: Antimicrobial activity against Penicillium chrysogenum after 24 hrs by broth dilution method; assay type: functional
Staphylococcus aureus [19] = assay: Antimicrobial activity against Staphylococcus aureus ATCC 25923 after 24 hrs by broth dilution method; assay type: functional; conditions: ATCC 25923, 24 h
Escherichia coli [20] = assay: Antimicrobial activity against Escherichia coli ATCC 25922 after 24 hrs by broth dilution method; assay type: functional; conditions: ATCC 25922, 24 h
Aspergillus niger [21] = assay: Antimicrobial activity against Aspergillus niger after 24 hrs by broth dilution method; assay type: functional

SMILES | zone of inhibition at 25 µg/disc (Escherichia coli [1]) | zone of inhibition at 50 µg/disc (Staphylococcus aureus [2]) | zone of inhibition at 50 µg/disc (Pseudomonas aeruginosa [3]) | zone of inhibition at 25 µg/disc (Pseudomonas aeruginosa [5]) | zone of inhibition at 100 µg/disc (Staphylococcus aureus [6]) | zone of inhibition at 25 µg/disc (Penicillium chrysogenum [7]) | zone of inhibition at 100 µg/disc (Escherichia coli [8]) | zone of inhibition at 100 µg/disc (Aspergillus niger [9]) | zone of inhibition at 50 µg/disc (Aspergillus niger [10]) | zone of inhibition at 100 µg/disc (Pseudomonas aeruginosa [11]) | zone of inhibition at 50 µg/disc (Penicillium chrysogenum [12]) | zone of inhibition at 50 µg/disc (Escherichia coli [13]) | zone of inhibition at 100 µg/disc (Penicillium chrysogenum [14]) | zone of inhibition at 25 µg/disc (Staphylococcus aureus [15]) | zone of inhibition at 25 µg/disc (Aspergillus niger [16]) | Activity (A549 [17]) | further results
Cc1cc(Nc2nc3ccccc3s2)nc(SCc2nc3ccccc3s2)n1 | 15 mm | 16 mm | 17 mm | 14 mm | 18 mm | 27 mm | 23 mm | 21 mm | 19 mm | 18 mm | 29 mm | 20 mm | 32 mm | 13 mm | 17 mm | – | inhibition (A549 [4]): Dose-dependent effect; IC50 (A549 [4]; A549, 20 h): 10.5 µM
Cc1cc(Cl)nc(SCc2nc3ccccc3s2)n1 | 7 mm | 4 mm | 9 mm | 7 mm | 16 mm | 7 mm | 14 mm | 10 mm | 8 mm | 10 mm | 9 mm | 10 mm | 11 mm | 6 mm | – | inactive | diameter of the inhibition zone (DIZ) (Aspergillus niger [16]): inactive
Cc1cc(Sc2nc3ccccc3o2)nc(SCc2nc3ccccc3o2)n1 | 10 mm | 11 mm | 11 mm | 10 mm | 14 mm | 9 mm | 17 mm | 12 mm | 10 mm | 14 mm | 11 mm | 15 mm | 13 mm | 9 mm | 8 mm | inactive | –
Cc1cc(Nc2nc3ccccc3o2)nc(SCc2nc3ccccc3o2)n1 | 12 mm | 13 mm | 14 mm | 11 mm | 17 mm | 19 mm | 20 mm | 19 mm | 17 mm | 17 mm | 21 mm | 17 mm | 24 mm | 10 mm | 15 mm | inactive | –
Cc1cc(Nc2nc3ccccc3[nH]2)nc(SCc2nc3ccccc3[nH]2)n1 | 19 mm | 17 mm | 19 mm | 16 mm | 20 mm | 29 mm | 25 mm | 25 mm | 23 mm | 21 mm | 31 mm | 22 mm | 33 mm | 15 mm | 20 mm | inactive | –
O=C(O)c1cn(C2CC2)c2cc(N3CCNCC3)c(F)cc2c1=O [CIPROFLOXACIN] | 30 mm | 24 mm | 28 mm | 25 mm | 27 mm | – | 38 mm | – | – | 30 mm | – | 35 mm | – | 22 mm | – | – | MIC (Penicillium chrysogenum [18]): inactive; MIC (Staphylococcus aureus [19]): 12.5 µg/mL (≈ 37.7 µM); MIC (Escherichia coli [20]): 12.5 µg/mL (≈ 37.7 µM); MIC (Aspergillus niger [21]): inactive
